Assay [1] concerns isolation-induced aggressive behaviour of male mice. The experiment in a line: Isolation-induced aggressive behaviour. The note with it: Mus musculus, sc, read-out: ED50, mg/kg, sc (dose inhibiting aggressive behaviour among 50 percent of the pairs). In kind it is in vivo, mouse (male NMR mice). The source says:
Male mice subjected to prolonged isolation develop aggressive behavior against each other when paired. […] The clinical correlation of this test indicates tranquillizing and anxiolytic activities as well as antiaggressive properties as such (R. L. Duncan et al., J. Med. Chem. 13, 1 (1970)).
This type of aggression is interesting because it is known that this kind of emotional behaviour might be located in limbic structures in the brain (P. D. Mac Lean, Psychosom. Med. 11, 338 (1949)).
Every week 24 male NMR mice, weighing 20-22 g, were isolated in Makrolon cages for three weeks with diet and water ad libitum. A piece of cardboard was placed between the cages to prevent visual contact.
To test aggressiveness the mice were paired in a neutral area, a beaker (14 cm high and diameter 14 cm). A pair is considered aggressive if both the animals show clear signs of fighting within 5 min. This fighting is characterized by biting and vocalization. As soon as fighting is seen, the mice are separated and brought to their home cage. […] Animals showing no aggression are discarded. […] The test substance is administered s.c. (0.2-0.4 ml/20 g). The mice are paired 1/2 h, 1 h, 2 h, 4 h, 6 h and 24 h after the injection for trials of 5 min. duration.
The ED50 -value (mg/kg) reported is the dose inhibiting aggressive behaviour among 50 percent of the pairs 1.0 hour after drug administration.

Assay [2] has as its system exploratory activity / climbing of mice. In words: Climbing (inability to ascend net-ladder). In kind it is in vivo, mouse (NMRI female). The following applies: Mus musculus, sc, read-out: ED50, mg/kg, s.c. (dose rendering 50% of the mice incapable of entering the top of the net-ladder). As for the experimental part: When mice are placed in a new area, they explore the whole available territory. Minor and major tranquillizers inhibit the exploratory activity. The sedative effect of drugs is evaluated by the inability of mice to ascend a netladder. The process of climbing is very complex and consists of psychical and taxic (motor performance) components. For the experiments a transparent cage (36×27×23 cm) and a net-ladder (35×6 cm) standing with an inclination of 45° was used. (P. Kneip. Arch. Int. Pharmacodyn. 76, 238 (1960); F. Sandberg, Arzneimittelforsch. 4, 203 (1959)).
The test compound is administered s.c. (10 ml/kg) to 6 NMRI female mice per dose. The mice are marked with a number code from 1 to 6, in order to recognize each individual mouse. In 25 minutes, 55 minutes, 1 h 55 minutes and 3 h 55 minutes time after the administration the mice are placed in the above-mentioned cage for 10 minutes. The number of mice ascending the top of the net-ladder is noted. Other behavioural items are also noted. The ED50 (mg/kg) reported is the dose rendering 50% of the mice incapable of entering the top of the net-ladder 0.5 h after the administration.

For assay [3], the system named is guinea pig papillary muscle. The following applies: cited from earlier work.
Assay [4] relates to pigs. The experiment in a line: Social parameters and aggression of pigs in stress situations. In kind it is in vivo, pig. The following applies: in words; for stabilization of social parameters: aggression, hierarchy, interaction, cleanliness, feeding behaviour; for effect on aggression: stress situations. From the text:
Among domestic animals pigs are exposed to a wide variety of stresses, e.g. after weaning, at transports and at regrouping of animals. By studying social parameters such as aggression, hierarchy, interaction, cleanliness in their living space and feeding behaviour in different stress situations the new compounds of formula I have been compared with established drugs, e.g. azaperone and acepromazine, now used in handling pigs.

The test system of assay [5] is thymus. The experiment in a line: Swim-test (stress-induced thymolymphatic involution). The following applies: for protecting capacity against the induced stress: in words; for Relative weight of thymus, ×100: once 10 min before first swim-test, saline stressed 36, unstressed 66, Wilcoxon's ranking test. In kind it is in vivo, mouse (NMRI female). The source says: If an animal is in a stage of exhaustion the rise in glucocorticoids induced by the stress causes thymolymphatic involution and elicites a characteristic change in blood count. […] In the experiments NMRI female mice were used with well-documented thymic glands. In the experiments the mice were divided in four groups. In the first group the mice were allowed to stay in their home cages all the time. In the second group saline-treated mice were repeatedly forced to swim in water at a temperature of +5° C. for 1 min. once every hour, 6 times per day for four days. In the third group the mice were pre-treated once with the test compound 10 min. before the first swim-test, otherwise the mice were manipulated in the same way as in the second group. In the fourth group the mice were adrenalectomized three days before the start of the swim tests. Otherwise also this group was manipulated as the second group. All mice were killed on the 5th day of the experiment and the weight of the thymic gland registered.

The test system of assay [6] is gastric ulcers in rats. The experiment in a line: Stress-induced ulcers (restraint and cold). In kind it is in vivo, rat (female Sprague Dawley). The note with it: 15 min before cold and restraint. The source says: A number of methods have been described for studies of somatic expression of adverse stimulation in experimental animals. One method is based upon the development of gastric lesions in rat subjected to some form of environmental stress. The most frequently used mode of stressing the rats is by simple physical restraint. In the experiments to be described rats were immobilized in rigid plastic devices. As repeatedly shown the restraint and the exposure to cold, act synergistically to produce gastric ulcers. The method for production of stress ulcus in rats has been described earlier (R. J. Levine In: C. J. Pfeiffer ed., Peptic Ulcer, Scand. Univ. Books, Copenhagen 1971). The animals in the experiments, female Sprague Dawley rats 180-230 g, have been kept immobilized for three hours at +5° C. For 24 hours prior to restraint the animals furthermore were not allowed to ingest anything but tap water. In all experiments the rats were divided in three groups. In the first group all animals were pre-treated only with saline 15 min. before the exposure to the stressors. […] The third group consisted always of the compound to be tested in this model. The number and severity of gastric erosions in the opened stomach of controls and drug-pre-treated animals were scored. The average number of gastric ulcers in the control rats were put equal to a hundred percent. In table VI the potency of some compounds to protect against gastric ulcers in the described experiments is reported. All pre-treatments were always made 15 min. before the exposure to cold and restraint.

Assay [7] deals with mouse-killing behaviour of rats. In words: Spontaneous mouse-killing (muricide) by rats. In kind it is in vivo, rat (male hooded Long-Evans). The note with it: Rattus norvegicus, sc. The source says:
For the purpose of detecting new psychotropic substances with antiaggressive properties, pharmacologist have used several different models. […] This form of aggressive behaviour which is considered to be of predatory nature, is physiologically and topographically different from other forms of aggression (M. O'Boyle, Psychol. Bull. 81, 261 (1974)). Mousekilling is a spontaneous behaviour in some rat strains e.g. male hooded Long-Evans rats. Male hooded Long-Evans rats placed in individual cages were used. By testing a number of rats, a colony of rats was obtained that killed a mouse whenever introduced into the rats' cage, by biting the mouse through the cervical spinal cord. Each rat was tested for mouse-killing behaviour (killing a mouse within 5 minutes) prior to each experiment, thus serving as its own positive control. For each dose level 6 positive rats were selected and the test substance was administered by subcutaneous injection. Doses were selected to form a dose-response curve and the mean effective dose (ED50, mg/kg) was calculated by means of linear regression. The rats were tested at 1, and 2 hours after being injected subcutaneously.

Assay [8] has as its system acetic acid induced writhing. The experiment in a line: Writhing test (analgetic properties). In kind it is in vivo, mouse (NMRI female). The note with it: Mus musculus, sc, 20 min before acetic acid i.p.; read-out: ED50, mg/kg, s.c. (dose blocking the writhing behaviour in 50% of the animals). As for the experimental part: The writhing test is a frequently used test of analgetic properties (L. B. Witkin et al., J. Pharmacol. Exp. Ther. 133, 400 (1961)). If acetic acid (0.5%, 15 ml/kg) is injected intraperitoneally in mice (NMRI) they will without exception develop a writhing behaviour characterized by stretching their hind legs. The drugs to be tested were administered subcutaneously to 6 female mice at each dose 20 min. before the injection of the acetic acid. After 10 min. the behaviour of the mice was studied in 5 min. The ED50 value is the dose blocking the writhing behaviour in 50% of the animals during the 5 min. study period. [drawing 13]
In general terms: An intraperitoneal irritant provokes the stretching counted in writhing tests.

Assay [9] deals with central 5HT receptors. The following applies: established antidepressant drugs; in words; cited from earlier work.
[10] abbreviates: read-out: ED50, mg/kg, s.c., 2 hrs after injection.
[11] abbreviates: 1 hr after injection, read-out: ED50, mg/kg, s.c., 1 hr.
Setting [12] is: 1.0 hour after drug administration.

Read-outs that look alike come from different tables or passages of the source.

As for `CN(C)CCCN1c2ccccc2Sc2ccc(Cl)cc21` [Chlorpromazine, reference compound], the values for the ED50 in [1] (1 h) and in [2] (0.5 h) were 1.4 mg/kg and 2 mg/kg, respectively.
For the compound `O=C(CCCN1CCC(O)(c2ccc(Cl)cc2)CC1)c1ccc(F)cc1` [Haloperidol, reference compound], the ED50 in assay [2] (0.5 h) is 1.3 mg/kg.
For `CCN(CC)CC(=O)Nc1c(C)cccc1C` [Lidocain], the “change of the effective refractory period” value (“change” for short) in assay [3] (10^-7 M) is 20 ms.
Consider `C=C[C@H]1C[N@@]2CC[C@H]1C[C@@H]2[C@@H](O)c1ccnc2ccc(OC)cc12` [Quinidine], for which the “change” value in [3] (10^-6 M) was 14 ms.
Take `O=C(CCCN1CCN(c2ccccn2)CC1)c1ccc(F)cc1` [Azaperone]: in assay [4], the “stabilization of social parameters” value is listed as “did not improve any social parameter” and the effect on aggression result is on record as “blocked aggression by an unspecific mechanism of sedation”. Moreover, the “protecting capacity against the induced stress” value in assay [5] is listed as “less effective”. Also, the “Relative weight of thymus, ×100” value in assay [5] (pre-treatment dose 1.0 mg/kg) came to 48. Further, the “Inhibition, % (gastric ulcers)” value in assay [6] (pre-treatment dose 1.0 mg/kg) came out at 0%.
Regarding `CN1CC[C@]23c4c5ccc(O)c4O[C@H]2[C@@H](O)C=C[C@H]3[C@H]1C5` [Morphine], the “Inhibition, % (gastric ulcers)” value in [6] (pre-treatment dose 2.0 mg/kg) was found to be 67%.
As to `CCCCc1oc2ccccc2c1C(=O)c1cc(I)c(OCCN(CC)CC)c(I)c1` [Amiodarone], the “change” value in [3] (10^-5 M) was 35 ms.
On to `CNC(=O)N1CCN(CCCC(c2ccc(F)cc2)c2ccc(F)cc2)CC1` [I, N'-Methyl-4-[4,4-(di-p-fluorophenyl)butyl]-1-piperazinecarboxamide], for which the ED50 worked out at 0.7 mg/kg in assay [7] (setting [10]); 0.5 mg/kg in assay [7] (setting [11]); 4.8 mg/kg in [1] (setting [12]); 0.5 mg/kg in assay [8]; 1.5 mg/kg in [2] (0.5 h after administration).
As for `CNC(=O)N1C[C@H](C)N(CCCC(c2ccc(F)cc2)c2ccc(F)cc2)C[C@H]1C` (relative stereo) [III, trans-2,5-Dimethyl-N'-methyl-4-[4,4-(di-p-fluorophenyl)butyl]-1-piperazinecarboxamide], the ED50 in assay [7] (setting [10]) amounted to 2.9 mg/kg; in assay [7] (setting [11]), 1.9 mg/kg; in assay [1] (setting [12]), 2.6 mg/kg; in [8] it was 1 mg/kg; in assay [2] (0.5 h after administration) it was 1 mg/kg.
On to `CN(C)CCC=C1c2ccccc2CCc2ccccc21` [Amitriptyline, reference compound], for which the ED50 was 6.4 mg/kg in assay [7] (setting [10]), above 10 mg/kg in [7] (setting [11]) and 5 mg/kg in assay [1] (setting [12]). For the same compound, the “blockade of central 5HT receptors” value in assay [9] was “potent blockers”.
On to `CN1CCN2c3ccccc3Cc3ccccc3C2C1` (stereo not drawn) [Mianserin], for which the “blockade of central 5HT receptors” value in assay [9] was “potent blockers”.
Regarding `CC(=O)c1ccc2c(c1)N(CCCN(C)C)c1ccccc1S2` [Acepromazine], in assay [4], the “stabilization of social parameters” value is recorded as “did not improve any social parameter” and the effect on aggression result was “blocked aggression by an unspecific mechanism of sedation”.
Take `CNC(=S)N1CCN(CCCC(c2ccc(F)cc2)c2ccc(F)cc2)CC1` [IV, N'-Methyl-4-[4,4-(di-p-fluorophenyl)butyl]-1-piperazinecarbothioamide]: the ED50 turned out to be 0.1 mg/kg in assay [7] (setting [10]); 0.1 mg/kg in assay [7] (setting [11]); 2 mg/kg in [1] (setting [12]); 1.4 mg/kg in assay [8]; 5.1 mg/kg in [2] (0.5 h after administration).
Take `CC(C)NCC(O)COc1cccc2ccccc12` (stereo not drawn) [Propranolol]: the “protecting capacity against the induced stress” value in assay [5] is on record as “less effective”. Further, the “Relative weight of thymus, ×100” value in assay [5] (pre-treatment dose 10.0 mg/kg) was found to be 48.

The values are drawn from patent US4385057A, “Diphenylbutyl-piperazinecarboxamides in pharmaceutical compositions and methods” (priority 1978, dated 1983).
